The target of assay [1] is T1, cyclooxygenase-1 (Mus musculus, UniProt P22437).
T1 construct: endogenous in cells; host or cells: primary mouse peritoneal macrophages (unstimulated)
T1 sequence (P22437 27-602): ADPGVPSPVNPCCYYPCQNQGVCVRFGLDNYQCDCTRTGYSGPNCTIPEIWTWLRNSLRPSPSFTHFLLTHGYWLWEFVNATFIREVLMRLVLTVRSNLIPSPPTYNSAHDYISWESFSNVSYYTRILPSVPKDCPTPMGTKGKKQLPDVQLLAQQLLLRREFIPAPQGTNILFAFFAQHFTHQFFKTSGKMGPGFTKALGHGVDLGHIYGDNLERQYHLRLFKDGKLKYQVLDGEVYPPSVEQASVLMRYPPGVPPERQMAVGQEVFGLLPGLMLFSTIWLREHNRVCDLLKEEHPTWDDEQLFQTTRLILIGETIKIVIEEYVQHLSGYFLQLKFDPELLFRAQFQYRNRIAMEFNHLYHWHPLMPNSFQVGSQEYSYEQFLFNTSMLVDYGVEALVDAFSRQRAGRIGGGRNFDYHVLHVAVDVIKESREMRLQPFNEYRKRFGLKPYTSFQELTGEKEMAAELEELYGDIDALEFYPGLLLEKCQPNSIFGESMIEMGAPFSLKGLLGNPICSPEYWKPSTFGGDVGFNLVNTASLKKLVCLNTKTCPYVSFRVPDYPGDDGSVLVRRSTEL
The experiment in a line: Inhibition of cyclooxygenase-1 in mouse peritoneal macrophages (PGE2 ELISA). Format: cell-based. As to the method:
First of all, the cyclooxygenase-1 was examined through the following procedure.
Peritoneal fluid in which macrophages were suspended was extracted from a mouse peritoneal cavity and centrifuged at 4° C., 1,000 rpm for 2 minutes. Then, the supernatant was removed, suspended with 20 ml of incomplete (no serum) RPMI medium [PC/SM (penicilin/streptomycin)] and again centrifuged under the same condition. […] Then, the cell number was calculated with the hemocytometer and adjusted to reach 1×10^6 cells/ml of cell concentration in the final cell suspension. 100 μl of the resulting suspension was transferred into each well of 96-well plate and left at 37° C. in 5% CO2 with the incubator for about 2 hours in order to attach macrophages. […] The resulting cell was cultivated in the incubator at 37° C. in 5% CO2 for about 12˜16 hours. Then, arachidonic acid was added, adjusting to 10 μM of a final concentration and incubated at 37° C. for more 10 minutes and the supernatant of the reacted solution (˜180 μl) was recovered to finish the reaction.
Background: An ELISA detects its analyte on a solid surface through an enzyme-linked reagent.

For assay [2], the target named is T2, cyclooxygenase-2 (Mus musculus, UniProt Q05769).
T2 construct: Peritoneal fluid suspended with macrophages was extracted from a mouse peritoneal cavity; endogenous in cells; host or cells: primary mouse peritoneal macrophages, pretreated with 500 uM aspirin and stimulated with 10 ug/ml LPS
T2 sequence (Q05769 18-604): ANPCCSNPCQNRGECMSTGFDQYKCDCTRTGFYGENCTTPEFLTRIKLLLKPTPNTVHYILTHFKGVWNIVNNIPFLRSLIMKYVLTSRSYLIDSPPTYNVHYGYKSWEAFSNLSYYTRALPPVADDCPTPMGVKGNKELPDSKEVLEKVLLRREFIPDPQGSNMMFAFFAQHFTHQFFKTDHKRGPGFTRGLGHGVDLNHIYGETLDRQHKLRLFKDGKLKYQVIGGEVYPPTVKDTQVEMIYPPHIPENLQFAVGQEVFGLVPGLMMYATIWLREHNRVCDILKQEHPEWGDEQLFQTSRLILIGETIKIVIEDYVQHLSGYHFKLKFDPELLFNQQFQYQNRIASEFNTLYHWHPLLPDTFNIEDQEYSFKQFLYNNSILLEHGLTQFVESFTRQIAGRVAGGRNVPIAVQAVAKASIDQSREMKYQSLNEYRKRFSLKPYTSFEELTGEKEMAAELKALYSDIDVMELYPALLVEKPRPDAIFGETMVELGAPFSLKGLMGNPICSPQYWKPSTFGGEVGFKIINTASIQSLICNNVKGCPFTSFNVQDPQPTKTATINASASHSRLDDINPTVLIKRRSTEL
The experiment in a line: Inhibition of cyclooxygenase-2 in aspirin-pretreated, LPS-stimulated mouse peritoneal macrophages (PGE2 ELISA). The assay is classed as cell-based. The method, then:
Second, the cyclooxygenase-2 was examined through the following procedure.
Peritoneal fluid suspended with macrophages was extracted from a mouse peritoneal cavity and centrifuged at 4° C., 1,000 rpm for 2 minutes. Then, the supernatant was removed, suspended using incomplete RPMI medium [PC/SM (penicilin/streptomycin)] and again centrifuged under the same condition. […] Then, the cell number was calculated with the hemocytometer and adjusted to reach 1×10^6 cells/ml of cell concentration in the final cell suspension. The resulting suspension was treated with aspirin, adjusting 500 μM of final concentration and transferred into each well of 96-well plate in 100 μl respectively. Again, it was left at 37° C. in 5% CO2 in the incubator for about 2 hours in order to attach macrophages. […] The resulting cell was cultivated in the incubator at 37° C. in 5% CO2 for about 12˜16 hours. Then, arachidonic acid was added, adjusting to 10 μM of a final concentration and incubated at 37° C. for more 10 minutes and the supernatant of the reacted solution (˜180 μl) was recovered to finish the reaction.

[3] abbreviates: in words, versus comparative substance.

The structures appear in SMILES notation.

As for `CCO/N=C1\CCc2ccccc2C1=Cc1ccc(S(C)(=O)=O)cc1` [Example 3, (E)-1-(4-methanesulfonyl-benzylidene)-3,4-dihydro-1H-naphthalene-2-one O-ethyl Oxime], the figures for the “Inhibitory effects of cyclooxygenase (COX), COX-1” value (from here on “Inhibitory effects … COX-1”) in assay [1] (3 μM), in assay [1] (10 μM) and in assay [1] (30 μM) were 60.4 % inhibition, 64.4 % inhibition and 74.6 % inhibition, respectively. The “Inhibitory effects of cyclooxygenase (COX), COX-2” value (“Inhibitory effects … COX-2” for short) in assay [2] (30 nM) amounted to 50.1 % inhibition; in assay [2] (100 nM), 58.8 % inhibition; in assay [2] (300 nM) it was 70.2 % inhibition.
As for `CO/N=C1\CCc2ccccc2C1=Cc1ccc(S(C)(=O)=O)cc1` [Example 4, (E)-1-(4-methanesulfonyl-benzylidene)-3,4-dihydro-1H-naphthalene-2-one O-methyl Oxime], the “Inhibitory effects … COX-1” value in assay [1] (3 μM) is given as 60.3 % inhibition; in assay [1] (10 μM), 71.1 % inhibition; in assay [1] (30 μM) it was 80.1 % inhibition. Further, the results for the “Inhibitory effects … COX-2” value in assay [2] (30 nM), in assay [2] (100 nM) and in assay [2] (300 nM) were 55.4 % inhibition, 69.9 % inhibition and 81.5 % inhibition, respectively.
With `CS(=O)(=O)c1ccc(/C=C2/C(=O)CCc3ccccc32)cc1` [Example 1, (E)-1-(4-methanesulfonyl-benzylidene)-3,4-dihydro-1H-naphthalene-2-one], the “Inhibitory effects … COX-1” value in assay [1] (3 μM) is recorded as 33.2 % inhibition; in assay [1] (10 μM), 40.7 % inhibition; in assay [1] (30 μM) it was 45.8 % inhibition. In addition, the “Inhibitory effects … COX-2” value in assay [2] (30 nM), in assay [2] (100 nM) and in assay [2] (300 nM) was “˜0 % inhibition” throughout.
Turning to `CS(=O)(=O)c1ccc(C=C2/C(=N/OC(=O)COCc3ccccc3)CCc3ccccc32)cc1` [Example 9, (E)-1-(4-methanesulfonyl-benzylidene)-3,4-dihydro-1H-naphthalene-2-one O-benzyloxyacetyl-oxime], the “Inhibitory effects … COX-1” value is on record as 22.8 % inhibition in assay [1] (3 μM), 31.1 % inhibition in assay [1] (10 μM) and 42.1 % inhibition in assay [1] (30 μM). The “Inhibitory effects … COX-2” value in assay [2] (30 nM) is on record as 20.4 % inhibition; in assay [2] (100 nM) it was 25.5 % inhibition; in assay [2] (300 nM), 30.1 % inhibition.
With `Cn1nc2c(c1-c1ccc(S(C)(=O)=O)cc1)-c1ccccc1CC2` [Example 10, 1-(4-methanesulfonyl-phenyl)-2-methyl-4,5-dihydro-2H-benzo[e]imidazole], the “Inhibitory effects … COX-1” value in assay [1] (3 μM) is listed as 49.8 % inhibition; in assay [1] (10 μM), 55.3 % inhibition; in assay [1] (30 μM), 61.5 % inhibition. The “Inhibitory effects … COX-2” value in assay [2] (30 nM) was 20.2 % inhibition; in assay [2] (100 nM), 31.8 % inhibition; in assay [2] (300 nM), 61.0 % inhibition.
On to `CC(=O)O/N=C1\CCc2ccccc2C1=Cc1ccc(S(C)(=O)=O)cc1` [Example 8, (E)-1-(4-methanesulfonyl-benzylidene)-3,4-dihydro-1H-naphthalene-2-one O-acetyl-oxime], for which the “Inhibitory effects … COX-1” value in assay [1] (3 μM) amounted to 7.6 % inhibition; in assay [1] (10 μM), 32.3 % inhibition; in assay [1] (30 μM), 53.9 % inhibition. Besides, the “Inhibitory effects … COX-2” value in assay [2] (30 nM) was found to be 22.1 % inhibition; in assay [2] (100 nM), 28.6 % inhibition; in assay [2] (300 nM), 29.6 % inhibition.
On to `CS(=O)(=O)c1ccc(-c2[nH]nc3c2-c2ccccc2CC3)cc1` [Example 6, 1-(4-methanesulfonyl-phenyl)-4,5-dihydro-2H-benzo[e]indazole], for which the entries for the “Inhibitory effects … COX-1” value in assay [1] (3 μM), in assay [1] (10 μM) and in assay [1] (30 μM) were 52.3 % inhibition, 57.3 % inhibition and 64.8 % inhibition, respectively. For the same compound, the figures for the “Inhibitory effects … COX-2” value in assay [2] (30 nM), in assay [2] (100 nM) and in assay [2] (300 nM) were 33.4 % inhibition, 46.6 % inhibition and 54.9 % inhibition, respectively.
`CS(=O)(=O)c1ccc(-c2onc3c2-c2ccccc2CC3)cc1` [Example 7, 1-(4-methanesulfonyl-phenyl)-4,5-dihydro-naphto[2,1-c]isooxazole]: the “Inhibitory effects … COX-1” value in assay [1] (3 μM) is 30 % inhibition; in assay [1] (10 μM), 44.1 % inhibition; in assay [1] (30 μM), 56.4 % inhibition. Besides, the “inhibition effect against cyclooxygenase-1 compared with comparative substance” value in assay [1] (setting [3]) is “much lower level than a comparative substance”. Also, the results for the “Inhibitory effects … COX-2” value in assay [2] (30 nM), in assay [2] (100 nM) and in assay [2] (300 nM) were 59.8 % inhibition, 70.6 % inhibition and 76.8 % inhibition, respectively. The “selectivity of cyclooxygenase-2” value in assay [2] (in words, COX-2 over COX-1) is listed as “better than any other substances”. Moreover, the “inhibition effect against cyclooxygenase-2 compared with comparative substance” value in assay [2] (setting [3]) is listed as “more excellent than a comparative substance”.
On to `CS(=O)(=O)c1ccc(C=C2/C(=N/OCc3ccccc3)CCc3ccccc32)cc1` [Example 5, (E)-1-(4-methanesulfonyl-benzylidene)-3,4-dihydro-1H-naphthalene-2-one O-benzyl Oxime], for which the “Inhibitory effects … COX-1” value in assay [1] (3 μM) is reported as 39.9 % inhibition; in assay [1] (10 μM), 47.1 % inhibition; in assay [1] (30 μM) it was 54.3 % inhibition. Moreover, the “Inhibitory effects … COX-2” value in assay [2] (30 nM) is recorded as 51.2 % inhibition; in assay [2] (100 nM), 55.4 % inhibition; in assay [2] (300 nM), 61.4 % inhibition.
As to `CS(=O)(=O)c1ccc(C=C2/C(=N/O)CCc3ccccc32)cc1` [Example 2, (E)-1-(4-methanesulfonyl-benzylidene)-3,4-dihydro-1H-naphthalene-2-one oxime], the “Inhibitory effects … COX-1” value in assay [1] (3 μM) stood at 56.7 % inhibition; in assay [1] (10 μM), 68.7 % inhibition; in assay [1] (30 μM) it was 80.4 % inhibition. The “Inhibitory effects … COX-2” value in assay [2] (30 nM) is 15.7 % inhibition; in assay [2] (100 nM), 20.7 % inhibition; in assay [2] (300 nM), 22 % inhibition.

Source of the values: patent US6768019B2 (Cheil Jedang Corporation, priority 2001, dated 2004).
